Data published in patent US20250049770A1, “Phosphodiesterase 4 Inhibitor Decreases Thrombosis in Simulated ECMO Model” (Board of Regents, The University of Texas System, priority 2023, published 2025).

Tests used:
monocyte = details: cell culture experiments; cited from earlier work
human whole blood [1] = assay: Clot formation (d-dimer) and plasminogen activating inhibitor in simulated Cardiohelp HTS in vitro ECMO system (Trial 2); details: after five hours of circulation, low flow rate (1 L/min); for clot formation as measured by d-dimer: heparin with or without roflumilast, p<0.04
Text: (§1) Whole blood was collected from healthy adults under an US Army Institution of Surgeryal Review Board approved protocol. A simulated Cardiohelp HTS in vitro ECMO system with a double-lumen veno-venous catheter circulated human whole blood at a low flow rate (1 L/min) for six hours or until clot formation caused device failure. Samples were collected hourly from the ECMO model that received heparin alone or heparin plus roflumilast (a PDE4 inhibitor). Expression of pro-thrombotic proteins on leukocytes and extracellular vesicles (EV) were measured with high-resolution flow cytometry. Coagulation factor activity, platelet counts, time to thrombin generation, peak thrombin, and endogenous thrombin potential were quantified.

[2] = tested on: platelets, leukocytes, and extracellular vesicles (EV); assay: High-resolution flow cytometry of pro-thrombotic proteins in roller pump ECMO circuit (Trial 1); assay type: cell-based, human
Text: (§2) Whole blood was collected from healthy adults under an U.S. Army Institute of Surgical Research approved standard operating procedure. A simulated neonatal roller pump with a KIDS D100 oxygenator circulated human whole blood at a low or nominal flow rate ([…] and 0.5 L/min) for six hours or until clot formation caused device failure. Samples were collected hourly from the ECMO model that received heparin alone or heparin plus roflumilast (a PDE4 inhibitor). Expression of pro-thrombotic proteins on leukocytes and extracellular vesicles (EV) were measured with high-resolution flow cytometry. Coagulation factor activity, platelet counts, time to thrombin generation, peak thrombin, and endogenous thrombin potential were quantified. Whole blood was collected from healthy adult humans into a blood transfer bag containing 0.5 U/mL of heparin with or without roflumilast at 0.01 microgram per mL, under an approved protocol by the U.S. Army Institute of Surgical Research. The blood was then circulated through a roller pump circuit for six hours or until clot formation occurred that prevented forward flow through the circuit. As a control, an aliquot of static blood was removed after priming the circuit and maintained in a similar test environment without circuitry. Samples were collected hourly from the roller pump circuit, which circulated blood treated with either heparin only or heparin plus roflumilast, at nominal flow rates (0.5 L/min). The expression of pro-thrombotic phospholipids and proteins on platelets, leukocytes, and extracellular vesicles (EV) was measured using high-resolution flow cytometry. Additionally, thromboelastography (TEG) and coagulation indices were used to assess coagulopathy, and a calibrated automated thrombogram was employed to measure differences in whole blood TEG between the roflumilast-treated and heparin-only samples.

[3] = tested on: neutrophils and monocytes; details: Totani et al (J. Thromb Haemost. 2016); cited from earlier work
human whole blood [4] = assay: Thromboinflammation markers in simulated Cardiohelp HTS in vitro ECMO system (Trial 2); assay type: cell-based; details: roflumilast added to heparin vs heparin alone; preliminary results
Text: as §1

leukocytes = assay: Leukocyte activation measured by TNF-alpha in roller pump ECMO circuit (Trial 1); assay type: cell-based, human; details: nominal flow rate (0.5 L/min), six hours; heparin with Roflumilast
Text: as §2, with “circuitry.” for “circuitry. Samples were collected hourly from the roller pump circuit, which circulated blood treated with either heparin only or heparin plus roflumilast, at nominal flow rates (0.5 L/min). The expression of pro-thrombotic phospholipids and proteins on platelets, leukocytes, and extracellular vesicles (EV) was measured using high-resolution flow cytometry. Additionally, thromboelastography (TEG) and coagulation indices were used to assess coagulopathy, and a calibrated automated thrombogram was employed to measure differences in whole blood TEG between the roflumilast-treated and heparin-only samples.”

thrombin generation = assay: Thrombin generation (calibrated automated thrombogram) in roller pump ECMO circuit (Trial 1); design: species or system human; details: for time to thrombin generation: at the 3-hour time point, p<0.04; for time to thrombin generation / peak thrombin generation: heparin with or without roflumilast; for peak thrombin generation: p<0.02
Text: (§3) Whole blood was collected from healthy adults under an U.S. Army Institute of Surgical Research approved standard operating procedure. A simulated neonatal roller pump with a KIDS D100 oxygenator circulated human whole blood at a low or nominal flow rate ([…] and 0.5 L/min) for six hours or until clot formation caused device failure. Samples were collected hourly from the ECMO model that received heparin alone or heparin plus roflumilast (a PDE4 inhibitor). Expression of pro-thrombotic proteins on leukocytes and extracellular vesicles (EV) were measured with high-resolution flow cytometry. Coagulation factor activity, platelet counts, time to thrombin generation, peak thrombin, and endogenous thrombin potential were quantified.
(§4) Whole blood was collected from healthy adult humans into a blood transfer bag containing 0.5 U/mL of heparin with or without roflumilast at 0.01 microgram per mL, under an approved protocol by the U.S. Army Institute of Surgical Research. The blood was then circulated through a roller pump circuit for six hours or until clot formation occurred that prevented forward flow through the circuit. As a control, an aliquot of static blood was removed after priming the circuit and maintained in a similar test environment without circuitry.
(§5) Samples were collected hourly from the roller pump circuit, which circulated blood treated with either heparin only or heparin plus roflumilast, at nominal flow rates (0.5 L/min). The expression of pro-thrombotic phospholipids and proteins on platelets, leukocytes, and extracellular vesicles (EV) was measured using high-resolution flow cytometry. Additionally, thromboelastography (TEG) and coagulation indices were used to assess coagulopathy, and a calibrated automated thrombogram was employed to measure differences in whole blood TEG between the roflumilast-treated and heparin-only samples.

human whole blood [5] = assay: Circuit patency / clot formation in simulated neonatal roller pump ECMO circuit (Trial 1); details: for circuits with sustained patency after six hours: heparin 0.5 U/mL with or without roflumilast, 3/4 vs 2/7 circuits
Text: as §3, §4, §5

[6] = in vitro ECMO experiments with roflumilast

Compound: O=C(Nc1c(Cl)cncc1Cl)c1ccc(OC(F)F)c(OCC2CC2)c1 [roflumilast]
- monocyte activation of tissue factor (monocyte): decreases
- clot formation as measured by d-dimer (human whole blood [1]): 0.30 ± 0.06 µg/mL
- increase in plasminogen activating inhibitor levels, more than heparin alone (human whole blood [1]; roflumilast added to heparin, p<0.03): 1.6 fold
- Monocytes expression of tissue factor ([2]; low flow (0.3 L/min) vs low flow with Roflumilast, p<0.05): increased more at low flow than circuits treated with
- P-selection expression ([2]; low flow (0.3 L/min) with Roflumilast vs nominal and low flow, over six hours, p<0.05): significantly inhibited
- extracellular leukocytes expressing tissue factor ([2]; roller pump circuit, heparin plus roflumilast): decreased
- pro-thrombotic functions of neutrophils and monocytes [3]: prevents
- monocyte activation (thromboinflammation) (human whole blood [4]): less
- myeloperoxidase (thromboinflammation) (human whole blood [4]): less
- p-selectin (thromboinflammation) (human whole blood [4]): less
- leukocyte activation as measured by TNF-alpha (leukocytes): inhibited leukocyte activation
- time to thrombin generation (thrombin generation): 13.9 min
- peak thrombin generation (thrombin generation): 69 nm
- thrombin generation (in vitro ECMO experiments, summary) (thrombin generation; [6]): decreased
- Peak thrombin (comparison in words) (thrombin generation; nominal flow rate (0.5 L/min), six hours, heparin only vs leukodepleted or roflumilast and heparin, p<0.05): increased significantly more in heparin only
- lag time (thrombin generation) (thrombin generation; over six hours of circulation, heparin vs heparin with Roflumilast): decreased lag time over six hours of circulation less than roflumilast treated circuits
- circuits with sustained patency after six hours (human whole blood [5]): 75%
- clot formation (in vitro ECMO experiments, summary) (human whole blood [5]; [6]): decreased

Compound: heparin
- clot formation as measured by d-dimer (human whole blood [1]): 0.49 ± 0.08 µg/mL
- time to thrombin generation (thrombin generation): 6.8 min
- peak thrombin generation (thrombin generation): 207 nm
- circuits with sustained patency after six hours (human whole blood [5]): 28%
